Our source for the Tm shift values is PubChem BioAssay AID383 (SGCOxCompounds, 2006).

SMILES strings stand for the structures.

This test addresses Dual specificity protein kinase CLK3 (Homo sapiens) (UniProt P49761). Description: ligand binding to human CDC-like kinase 3 – biophysical, thermal shift, recombinant protein (AID 383). The settings on record: at 10 µM, active compounds read high.
Setting [1] is: protein 1.5 µM, buffer 10 mM HEPES, pH 7.5, NaCl 150 mM, with 50 µM L-Arg/L-Glu (1:1).
The mark [2] stands for this setting: protein 2 µM, buffer 50 mM HEPES, pH 7.5, NaCl 500 mM.
Setting [3] is: protein 1.8 µM, buffer 10 mM HEPES, pH 7.5, NaCl 150 mM, with 50 µM L-Arg/L-Glu (1:1).
[4] abbreviates: protein 2 µM, buffer 10 mM HEPES, NaCl 150 mM, with 50 mM Arg/Glu.
Where [5] appears, read: protein 2 µM, buffer 10 mM HEPES, pH 7.5, NaCl 150 mM.
The mark [6] stands for this setting: protein 1.7 µM, buffer 10 mM HEPES, pH 7.5, NaCl 150 mM, with 50 µM L-Arg/L-Glu (1:1).

Sequence of Dual specificity protein kinase CLK3 (Homo sapiens) (P49761 whole entry, looked up): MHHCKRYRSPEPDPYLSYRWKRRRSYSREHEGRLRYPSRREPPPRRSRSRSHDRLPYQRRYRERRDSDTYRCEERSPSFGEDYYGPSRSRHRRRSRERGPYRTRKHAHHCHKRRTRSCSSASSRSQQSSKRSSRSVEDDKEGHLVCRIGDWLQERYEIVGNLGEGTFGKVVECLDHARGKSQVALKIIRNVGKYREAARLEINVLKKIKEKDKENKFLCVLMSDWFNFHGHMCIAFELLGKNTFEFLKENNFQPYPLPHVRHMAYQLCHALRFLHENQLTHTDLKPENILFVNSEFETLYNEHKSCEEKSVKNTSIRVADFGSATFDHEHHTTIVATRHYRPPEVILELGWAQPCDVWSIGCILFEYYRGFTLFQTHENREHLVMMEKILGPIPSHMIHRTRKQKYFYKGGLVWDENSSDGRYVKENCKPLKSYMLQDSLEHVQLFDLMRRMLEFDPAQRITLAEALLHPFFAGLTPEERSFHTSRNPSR

Consider `Cc1cc(Nc2nc(-c3ccccc3)nc3ccccc23)n[nH]1`, for which the Tm shift under setting [1] was 4.1 Celsius.
On to `O=c1cc(-c2ccc(O)c(O)c2)oc2cc(O)cc(O)c12`, for which the Tm shift under setting [2] is 4.28 Celsius.
As for `NC1=N/C(=C2/CCNC(=O)c3[nH]c(Br)cc32)C(=O)N1`, the Tm shift is, setting by setting: under setting [3], 7.2 Celsius; under setting [4], 8.87 Celsius.
`CCC(CO)Nc1ccc2ncc(-c3ccc(O)cc3)n2n1` (stereo not drawn): the Tm shift under setting [4] is 4.43 Celsius.
Consider `CC(C)[C@@H](CO)Nc1ccc2ncc(-c3cccc(OC(F)(F)F)c3)n2n1`, for which, under setting [5], the Tm shift is 4.02 Celsius.
As to `CC1N=C2SC=CN2C(=O)C1CCN1CCC(=C(c2ccccc2)c2ccc(F)cc2)CC1` (stereo not drawn), the Tm shift under setting [3] is 3.8 Celsius.
On to `CCC(CO)Nc1ccc2ncc(-c3ccc(OC)nc3)n2n1` (stereo not drawn), for which the Tm shift under setting [5] is 4.48 Celsius.
On to `O=C1C(=O)C(c2cc(O)c(O)c(O)c2)Oc2cc(O)cc(O)c21` (stereo not drawn), for which the Tm shift under setting [2] was 3.08 Celsius.
For `CC(C)[C@@H](CO)Nc1ccc2ncc(-c3ccc(C#N)cc3)n2n1`, the Tm shift under setting [4] is 4.58 Celsius.
As to `Nc1ncnc2c1c(I)cn2[C@@H]1O[C@H](CO)C(O)C1O` (stereo partly drawn), the Tm shift runs as follows: under setting [3], 7.5 Celsius; under setting [4], 7.25 Celsius.
Consider `Cc1[nH]c(/C=C2\C(=O)Nc3ccc(S(=O)(=O)N(C)c4cccc(Cl)c4)cc32)c(C)c1C(=O)N1CCN(C)CC1`, for which the Tm shift under setting [1] is 3.7 Celsius.
For the compound `COc1ccc(Nc2nc(N)c(C(=O)c3ccc(OC)cc3)s2)cc1`, the Tm shift under setting [6] was 4.3 Celsius.
In the case of `CN(C)S(O)(O)c1ccc2c(c1)/C(=C/c1cc3c([nH]1)CCCC3)C(=O)N2`, the Tm shift under setting [3] was 4.1 Celsius.
Regarding `O=c1c(O)c(-c2ccc(O)c(O)c2)oc2cc(O)cc(O)c12`, the Tm shift by setting is: under setting [4], 4.2 Celsius; under setting [2], 3.12 Celsius.
Turning to `COc1ccc(Nc2nc(N)c(C(=O)c3ccc(Cl)cc3)s2)cc1`, under setting [6], the Tm shift is 3.7 Celsius.
Consider `Cc1c2ccncc2c(C)c2c1[nH]c1ccccc12`, for which the Tm shift under setting [3] was 4.2 Celsius.
In the case of `Cn1cc(/C=C2\C(=O)Nc3ccc(S(N)(=O)=O)cc32)c2ccccc21`, under setting [3], the Tm shift was 3.2 Celsius.
For the compound `NCCCn1cc(C2=C(c3c[nH]c4ccccc34)C(=O)NC2=O)c2ccccc21`, the Tm shift under setting [2] is 3.18 Celsius.
The same measure, in the same setting: to `CCN1/C(=C/C(C)=O)Sc2ccc(OC)cc21` belongs 3.16 Celsius.
`N#C/C(=C1\Nc2ccccc2S1)c1ccnc(NCCc2cccnc2)n1`: under setting [1], the Tm shift was 4.9 Celsius.
With `COc1cc(/C=C/C(=O)CC(=O)/C=C/c2ccc(O)c(OC)c2)ccc1O`, under setting [3], the Tm shift was 5.3 Celsius.
Turning to `CCC(CO)Nc1ccc2ncc(-c3cccc(OC(F)(F)F)c3)n2n1` (stereo not drawn), the Tm shift under setting [5] was 3.66 Celsius.
Regarding `COc1cccc(-c2cnn3ccc(Nc4cccc(Cl)c4)nc23)c1`, under setting [5], the Tm shift was 4.61 Celsius.
On to `O=C1NC(=O)C(c2c[nH]c3ccccc23)=C1c1c[nH]c2ccccc12`, for which, under setting [1], the Tm shift was 3.2 Celsius.
Take `Clc1cccc(Nc2ccn3ncc(-c4ccc5c(c4)OCO5)c3n2)c1`: the Tm shift under setting [5] was 6.07 Celsius.
As for `O=C(c1ccc(Nc2nccc(-c3cc4ccccc4s3)n2)cc1)N1CCC(N2CCCC2)CC1`, the Tm shift under setting [1] is 6.3 Celsius.
Take `CC(C)[C@@H](CO)Nc1ccc2ncc(-c3cccc(O)c3)n2n1`: the Tm shift under setting [5] was 4.02 Celsius.
As for `Nc1nc(Nc2ccc(F)cc2)sc1C(=O)c1ccccc1`, the Tm shift under setting [6] was 3.2 Celsius.
On to `NC(=O)c1ccc(-c2nc(-c3ccc4c(c3)OCCO4)c(-c3ccccn3)[nH]2)cc1`, for which, under setting [3], the Tm shift was 4.8 Celsius.
As to `O=c1c(O)c(-c2cc(O)c(O)c(O)c2)oc2cc(O)cc(O)c12`, the Tm shift under setting [2] was 3.25 Celsius.
`CC(=O)c1cccc(-c2cnc3ccc(N[C@H](CO)C(C)C)nn23)c1`: the Tm shift under setting [4] was 3.77 Celsius.
On the same count and under the same terms, then `N=C(N)SCCCn1cc(C2=C(c3c[nH]c4ccccc34)C(=O)NC2=O)c2ccccc21`, with 3.37 Celsius; and `CCC(CO)Nc1ccc2ncc(-c3ccc(C(=O)O)cc3)n2n1` (stereo not drawn), with 3.99 Celsius.
For `O=Nc1c(-c2c(O)[nH]c3ccc(S(O)(O)O)cc23)[nH]c2ccccc12`, the Tm shift under setting [1] is 4.7 Celsius.
As for `CCC(CO)Nc1ccc2ncc(-c3cccc(C(C)=O)c3)n2n1` (stereo not drawn), the Tm shift under setting [5] is 3.42 Celsius.
Still for that read-out and setting: then `N#Cc1ccc(-c2cnc3ccc(NC4CCOCC4)nn23)cc1`, with 3.76 Celsius.
With `O=Nc1c(-c2c(O)[nH]c3ccc(I)cc23)[nH]c2ccccc12`, under setting [1], the Tm shift is 4.5 Celsius.
On to `CC(=O)Nc1cccc(-c2cnc3ccc(N[C@H](CO)C(C)C)nn23)c1`, for which the Tm shift under setting [4] is 4.32 Celsius.
Consider `CCC(CO)Nc1ccc2ncc(-c3ccc(F)c(Cl)c3)n2n1` (stereo not drawn), for which the Tm shift under setting [5] was 3.6 Celsius.
For `CN(C)CCCn1cc(C2=C(c3c[nH]c4ccccc34)C(=O)NC2=O)c2ccccc21`, the Tm shift under setting [3] was 3.5 Celsius.
Consider `CC(C)C(CO)Nc1nc(Nc2cccc(Cl)c2)c2ncn(C(C)C)c2n1` (stereo not drawn), for which, under setting [4], the Tm shift was 3.88 Celsius.
Turning to `CC(C)n1cnc2c(Nc3cccc(Cl)c3)nc(NCCO)nc21`, the Tm shift under setting [3] was 4.6 Celsius and the Tm shift under setting [4] was 3.76 Celsius.
On to `Nc1ccc(-c2cnn3ccc(Nc4cccc(Cl)c4)nc23)cc1`, for which the Tm shift under setting [5] was 3.58 Celsius.
With `Nc1nc(Nc2cccc(Cl)c2)sc1C(=O)c1ccc(F)cc1`, the Tm shift under setting [6] was 3.4 Celsius.
As to `O=Nc1c(-c2c(O)[nH]c3ccccc23)[nH]c2ccccc12`, the Tm shift under setting [3] was 4.6 Celsius.
Regarding `NC1=N/C(=C2\CCNC(=O)c3[nH]ccc32)C(=O)N1`, under setting [4], the Tm shift was 4.35 Celsius.
As for `Nc1nc(Nc2ccc(S(N)(=O)=O)cc2)nn1C(=S)Nc1c(F)cccc1F`, the Tm shift under setting [4] was 15.1 Celsius.
As for `O=c1cc(-c2ccc(O)cc2)oc2cc(O)cc(O)c12`, the Tm shift under setting [3] was 3.1 Celsius.
As to `OCC(O)CCO/N=C1/C(c2c(O)[nH]c3ccccc23)=Nc2ccccc21` (stereo not drawn), under setting [1], the Tm shift is 4 Celsius.
